One data set relates to Hepatocytes. The data set is described as follows: Hepatocytes predicted clearance, human.
For a further data set, the target named is Human TRPV4 (Homo sapiens, UniProt Q9HBA0). The data set is described as follows: TRPV4 calcium flux assay (FLIPR, antagonist mode). As to conditions: HEK293T cells transfected with hTRPV4; antagonist mode vs EC80 of TRPV4 agonist; average of at least 3 separate experiments; read-out: Human TRPV4 Ca2+ Assay IC50. The class given is cell-based. Details: HiBiT (inferred from the expression read-out); host or cells: HEK293T. Here is the method:
Example 23. TRPV4 Calcium Assay Methods
Human embryonic kidney 293T (HEK293T/293T) cells are cultured in complete media (Dulbecco's Modified Eagle Medium (DMEM), containing 10% fetal bovine serum (FBS) and 1× penicillin-streptomycin) in a T-75 tissue culture flask. At 90% confluency, cells are detached using TrypLE™ Express cell dissociation buffer. TrypLE™ Express buffer is neutralized by adding culture media in excess. Cells are gently triturated and counted using trypan blue in a Countess 3 automated cell counter. Cells are transferred to a 50 mL conical tube and spun down at 1000 rotations per minute (RPM) for five minutes in a benchtop centrifuge. Media containing detaching enzyme is aspirated off the pellet, followed by resuspension to the desired concentration of 2×10^6 cells per mL in complete DMEM.
Transfection preparations were scaled using a combination of 6 μg of TRPV4 wild-type or mutant plasmid DNA, 36 μL of Fugene6 transfection reagent, and 1000 μL of OptiMEM media for every 2×10^6 cells needed. The transfection mix is left to incubate for 20 minutes at room temperature. Total seeding mixture (1000 μL 2×10^6 cells, 1000 μL transfection mix previously described, and 1000 μL complete DMEM) for one transfection is combined into a 15 mL conical tube. The cells and transfection plasmid are mixed thoroughly and dispensed into a reservoir. This is plated at 25 μL per well in a black 384, black-well, clear-bottom, tissue-culture treated plate. This yields approximately 16,000 cells per well. Plasmid DNA constructs were designed by Actio Biosciences in conjunction with Genscript, and generated by Genscript, for all hTRPV4 wild-type and hTRPV4 P/LP (ClinVar) mutations (G78W, P82S, T891, P97R, R186Q, R232C, R232P, R237G, R237Q, R237 L, R269C, R269H, R269S, G270V, R271P, F273 L, K276E, E278K, G280S, Y281S, R315G, R315W, R316C, R316H, R316 L, R316S, I331F, D333G, S403T, K403T, K407E, S542P, S542Y, L543R, Y591N, R594C, R594H, R594S, G600E, Y602C, R616Q, F617 L, L618P, V6201, A716S, A716T, L735R, T740I, R775K, W785R, E797D, E797K, P799A, P799R, P799S, P799 L, G800D, K801E, P827H, F471del, N797del). The remaining cells are plated in the same manner, in a 384, white-well, clear-bottom, tissue-culture treated plate for expression and relative cell number determination. Plates are placed in the incubator at 37° C. overnight.
Compounds were brought to 10 mM in DMSO. DMSO concentration was kept constant throughout the dilution of any compound. DMSO negative control and concentration-response curves were nanoliter-spotted via PICO8 automated dispenser at 5× test concentration into a 384w clear polypropylene plate containing 1×HBSS+20 mM HEPES buffer. A predetermined concentration equivalent to the EC80 of TRPV4 agonist on hTRPV4 was prepared at 6× in 1×HBSS+20 mM HEPES and loaded into a separate 384-well v-bottom polypropylene plate.
Approximately 18 hours post-transfection, the cell plates were removed from the incubator and equal volume (25 uL) Calcium 6 dye was gently added. Calcium 6 dye containing probenecid (final 5 mM) was prepared per manufacturer's instructions. Cell plate was returned to the incubator for 1 hour, at 37° C.
FLIPR Penta was programmed to add compound using the following settings • Pipettor Head=384 • Read Mode 1 Excitation Wavelength=470_495 • Read Mode 1 Emission Wavelength=515_575 • Read Mode 1 Exposure=0.1000 • Read Mode 1 Gain=6.50 • Read Mode 1 Excitation Intensity=20 • Volume of addition=12.5 μL • Height=40 μL • Speed=15 μL/second
Raw data was exported and analyzed for maximum signal (RFU) after agonist addition—the average baseline (RFU) in the first 15 seconds per well. Data was plotted in GraphPad Prism to determine EC50 or IC50 of the molecules.
(In general: Calcium flux is commonly read through the fluorescence of an indicator in the cells.)

We go through one molecule from patent US12391683B2, “Therapeutic compounds and methods” (Actio Biosciences, Inc., priority 2022, dated 2025).

Chain of Human TRPV4 (Q9HBA0 whole entry): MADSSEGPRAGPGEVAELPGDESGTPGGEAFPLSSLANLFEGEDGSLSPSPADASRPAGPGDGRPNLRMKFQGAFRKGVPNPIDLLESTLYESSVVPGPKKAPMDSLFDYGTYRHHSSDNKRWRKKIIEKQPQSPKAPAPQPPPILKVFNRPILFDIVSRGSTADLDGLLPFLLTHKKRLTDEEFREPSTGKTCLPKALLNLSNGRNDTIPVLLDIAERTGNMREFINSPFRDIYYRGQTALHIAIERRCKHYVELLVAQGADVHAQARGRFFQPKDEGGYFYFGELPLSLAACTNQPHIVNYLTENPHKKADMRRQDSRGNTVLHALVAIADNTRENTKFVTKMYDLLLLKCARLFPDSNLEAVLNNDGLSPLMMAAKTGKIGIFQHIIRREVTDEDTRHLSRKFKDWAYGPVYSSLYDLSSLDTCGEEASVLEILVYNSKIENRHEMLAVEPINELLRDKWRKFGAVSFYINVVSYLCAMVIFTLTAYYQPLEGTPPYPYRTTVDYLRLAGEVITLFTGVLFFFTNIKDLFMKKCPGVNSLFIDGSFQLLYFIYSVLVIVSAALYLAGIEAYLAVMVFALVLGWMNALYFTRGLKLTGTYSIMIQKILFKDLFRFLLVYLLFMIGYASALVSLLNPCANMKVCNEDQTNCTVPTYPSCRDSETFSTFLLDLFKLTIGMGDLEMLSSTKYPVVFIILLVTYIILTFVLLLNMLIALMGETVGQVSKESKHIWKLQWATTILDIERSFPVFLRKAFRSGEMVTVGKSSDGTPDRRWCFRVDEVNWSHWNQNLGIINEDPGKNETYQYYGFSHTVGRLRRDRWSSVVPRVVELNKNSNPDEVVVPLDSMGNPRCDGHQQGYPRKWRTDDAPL

Broadly, the IC50 is the concentration that gives 50% inhibition. As for `CC(C)(O)c1cnc(N2C[C@@]3(CC[C@@H](F)[C@](C)(Cn4cnc5ccc(C#N)cc54)C3)OC2=O)cn1` (single isomer, unassigned) [Example 5], the “Hepatocytes predicted clearance in human” value in the data set on Hepatocytes was less than 0.17 mL/min/kg. The half-maximal inhibitory concentration (IC50) at Human TRPV4 came out at 13 nM.
